Assay results from patent publication US12213970B2, “Pyridinyl sulfonamide derivatives, pharmaceutical compositions and uses thereof” (Boehringer Ingelheim International GmbH, priority 2018, dated 2025).
Where a name gives a salt, the structure may show the parent alone. Read-outs that look alike come from different tables or passages of the source.

Experiments:
[1] = molecular target: T1, human AOC3 enzyme (recombinant CHO cells) (Homo sapiens, UniProt Q16853); experiment: AOC3 biochemical assay (MAO-Glo), human enzyme
T1 construct: expressed in transfected cells; host or cells: CHO cells
T1 sequence (Q16853 1-763): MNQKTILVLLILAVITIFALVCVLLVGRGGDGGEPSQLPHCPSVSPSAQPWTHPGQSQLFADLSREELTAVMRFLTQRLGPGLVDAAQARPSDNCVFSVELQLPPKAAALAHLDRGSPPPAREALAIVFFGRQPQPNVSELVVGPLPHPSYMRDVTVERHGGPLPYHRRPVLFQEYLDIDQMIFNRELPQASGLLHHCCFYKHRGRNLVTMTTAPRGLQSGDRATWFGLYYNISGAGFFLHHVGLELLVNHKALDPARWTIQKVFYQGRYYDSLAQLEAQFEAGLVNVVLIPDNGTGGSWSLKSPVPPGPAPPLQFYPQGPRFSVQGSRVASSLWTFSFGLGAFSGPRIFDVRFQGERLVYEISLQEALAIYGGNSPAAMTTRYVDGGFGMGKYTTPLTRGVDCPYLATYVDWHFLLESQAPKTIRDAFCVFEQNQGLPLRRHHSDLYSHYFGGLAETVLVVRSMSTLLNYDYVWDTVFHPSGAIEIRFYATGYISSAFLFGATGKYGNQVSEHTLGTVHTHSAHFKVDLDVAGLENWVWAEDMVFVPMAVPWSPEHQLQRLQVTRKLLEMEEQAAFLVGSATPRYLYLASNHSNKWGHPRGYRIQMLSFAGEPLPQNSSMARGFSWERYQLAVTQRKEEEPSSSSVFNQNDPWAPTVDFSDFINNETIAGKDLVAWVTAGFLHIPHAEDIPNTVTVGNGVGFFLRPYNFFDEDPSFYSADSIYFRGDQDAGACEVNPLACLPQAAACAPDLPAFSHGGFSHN
Description: The MAO-Glo™ Assay (commercially available from PROMEGA, #V1402) provides a sensitive method for the measurement of monoamine oxidase (MAO) activity (Valley, M. P. et al., 2006, Anal. Biochem. 359: 238-246) from a variety of tissues, biofluids or recombinant expressed or purified enzymes. As substrate a derivate of the beetle luciferin ((4S)-4,5-dihydro-2-(6-hydroxybenzothiazolyl)-4-thiazole-carboxylic acid) is used, which is oxidized at a primary amine moiety. After a spontaneous elimination and a catalyzed esterase reaction, the turnover of luciferin by the luciferase is recorded as a signal of AOC3 activity.
An aliquot of 3 μL of the compound dilution is added to a 384 well plate (Optiplate, PS, flat bottom, white, PERKIN ELMER, #6007290) with a final DMSO concentration of 6.6%. Recombinant CHO cells, overexpressing the human (1500 cells/well), mouse (1000 cells/well) or rat (500 cells/well) AOC3 enzyme are diluted in reaction buffer and added in a volume of 15 μL to the wells. After incubation for 20 minutes at 37° C., 2 μL of MAO substrate (dissolved in DMSO at 16 mM, adjusted to assay concentration in reaction buffer to a final assay concentration of 20 μM) is added and further incubated for 60 minutes at 37° C. The turnover of the substrate is determined by the addition of 20 μL of the detection-mix which was generated by the addition of reconstitution buffer with esterase (PROMEGA, #V1402) to the luciferin detection reagent (PROMEGA, #V1402). After an incubation period of 20 minutes, the luminescent signal is measured with Envision 2104 Multilabel Reader (PERKIN ELMER).

[2] = molecular target: T2, AOC1 (Homo sapiens, UniProt P19801); experiment: AOC1 biochemical assay (Amplex Red)
T2 construct: purchased R&D Systems 8297-AO-010
T2 sequence (P19801 20-751): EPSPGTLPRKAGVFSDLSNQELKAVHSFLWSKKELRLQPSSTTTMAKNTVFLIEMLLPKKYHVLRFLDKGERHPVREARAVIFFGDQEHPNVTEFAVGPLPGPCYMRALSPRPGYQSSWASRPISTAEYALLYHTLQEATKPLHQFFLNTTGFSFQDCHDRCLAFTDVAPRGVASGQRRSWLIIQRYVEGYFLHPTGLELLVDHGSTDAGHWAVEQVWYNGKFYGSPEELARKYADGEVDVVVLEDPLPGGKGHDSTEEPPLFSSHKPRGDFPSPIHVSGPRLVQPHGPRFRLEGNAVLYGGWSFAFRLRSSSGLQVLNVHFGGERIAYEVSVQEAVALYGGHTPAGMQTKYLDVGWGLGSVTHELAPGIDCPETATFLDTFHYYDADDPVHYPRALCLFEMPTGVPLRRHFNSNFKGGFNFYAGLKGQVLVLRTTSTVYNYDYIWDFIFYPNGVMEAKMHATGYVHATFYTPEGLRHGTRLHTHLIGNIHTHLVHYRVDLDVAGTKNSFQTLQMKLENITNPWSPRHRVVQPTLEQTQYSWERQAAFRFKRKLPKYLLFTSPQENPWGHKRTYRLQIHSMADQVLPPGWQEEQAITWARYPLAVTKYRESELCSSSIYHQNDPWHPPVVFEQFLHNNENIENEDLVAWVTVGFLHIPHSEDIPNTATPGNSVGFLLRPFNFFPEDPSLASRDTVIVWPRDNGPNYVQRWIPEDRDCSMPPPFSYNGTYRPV
Experimental: The Amplex® Red Assay (available from Thermo Fisher Scientific) provides a sensitive method for the detection of H2O2 generated during enzymatic reactions like the amine oxidation catalyzed by AOC1. The assay reagent is a colorless substrate (N-acetyl-3,7-dihydroxyphenoxazine) that reacts in a 1:1 stoichiometry with hydrogen peroxide (H2O2) to produce the fluorescent dye resorufin (7-hydroxyphenoxazin-3-one, excitation/emission maxima=570/585 nm).
An aliquot of 3 μL of the compound dilution is added to a 384 well plate (Optiplate, PS, flat bottom F, black, PERKIN ELMER, #6007270) in a DMSO concentration of 6.6%.
An AOC1 enzyme aliquot (#8297-AO-010, R&D Systems) is thawed on ice, diluted in reaction buffer and added in a volume of 7 μL to the wells to give a final assay concentration of 1 ng/well. After incubation of inhibitor and enzyme for 30 minutes at 37° C., the enzymatic reaction is started with the addition of 10 μL of Amplex® Red reaction mix (final assay concentration: 100 mM sodiumphosphate, 120 μM Amplex® Red reagent (#A22177 Molecular Probes), 1.5 U/mL Horseradish Peroxidase (#P8375 Sigma-Aldrich), 200 μM putrescine (#P7505 Sigma-Alrdich), 0.05% Pluronic F-127 (#P3000MP Sigma-Aldrich), pH 7.4, 37° C.).
After an incubation for 30 minutes at 37° C. the turnover of the substrate is determined directly (or after the addition of an excess of an amine-oxidase inhibitor) with a fluorescence reader (Ex 540 nm/Em 590 nm) like Envision 2104 Multilabel Reader (PERKIN ELMER).

| SMILES | IC50 ([1]; comparison table, read-out: IC50 AOC3) [nM] | IC50 ([2]; comparison table, read-out: IC50 AOC1) [nM] | IC50 ([1]; read-out: AOC3 IC50) [nM] | IC50 ([2]; read-out: AOC1 IC50) [nM] |
| --- | --- | --- | --- | --- |
| CN(C)S(=O)(=O)c1ccc(OC/C(=C\F)CN)cc1 [Compound 10 of WO 2013/163675, reference compound] | 2 | 963 |  |  |
| CN1CCN(C2CCN(S(=O)(=O)c3ccc(OC/C(=C\F)CN)nc3)CC2)C1=O [Example 1, 1-{1-[6-((Z)-2-Aminomethyl-3-fluoro-allyloxy)-pyridine-3-sulfonyl]-piperidine-4-yl}-3-methyl-imidazolidin-2-one trifluoroacetate] |  |  | 7 | 15300 |
| CC(C)(O)CNC(=O)[C@H]1CCN(S(=O)(=O)c2ccc(OC/C(=C\F)CN)nc2)C1 [Example 2] |  |  | 40 | 8140 |
| NC/C(=C/F)COc1ccc(S(=O)(=O)N2CCC(C(=O)N3CCOCC3)CC2)cn1 [Example 3] |  |  | 88 | 16400 |
| CN(C)C(=O)[C@H]1CCN(S(=O)(=O)c2ccc(OC/C(=C\F)CN)nc2)C1 [Example 4] |  |  | 23 | 3420 |
| CNC(=O)[C@@H]1[C@@H]2CN(S(=O)(=O)c3ccc(OC/C(=C\F)CN)nc3)C[C@@H]21 [Example 5] |  |  | 27 | 1220 |
| CC(=O)N[C@H]1CCCN(S(=O)(=O)c2ccc(OC/C(=C\F)CN)nc2)C1 [Example 6] |  |  |  | 678 |
| NC/C(=C/F)COc1ccc(S(=O)(=O)N2CCC(C(N)=O)CC2)cn1 [Example 7] |  |  | 4 | 1560 |
| CNC(=O)[C@@H]1CCCN1S(=O)(=O)c1ccc(OC/C(=C\F)CN)nc1 [Example 8] |  |  | 48 | 497 |
| CC(=O)N1CC(C2CCN(S(=O)(=O)c3ccc(OC/C(=C\F)CN)nc3)CC2)C1 [Example 9] |  |  | 15 | 4550 |
| NC/C(=C/F)COc1ccc(S(=O)(=O)N2CCC(C(=O)N3CCC3)CC2)cn1 [Example 10] |  |  | 22 | 3180 |
| CNC(=O)[C@H]1CCN(S(=O)(=O)c2ccc(OC/C(=C\F)CN)nc2)C1 [Example 11] |  |  |  | 2550 |
| CC(=O)NC1CCN(S(=O)(=O)c2ccc(OC/C(=C\F)CN)nc2)C1 (stereo not shown) [Example 12] |  |  | 15 | 3180 |
| NC/C(=C/F)COc1ccc(S(=O)(=O)N2CCC[C@H]2C(N)=O)cn1 [Example 13] |  |  | 43 | 667 |
| CNC(=O)[C@@H]1CCN(S(=O)(=O)c2ccc(OC/C(=C\F)CN)nc2)C1 [Example 14] |  |  |  | 2150 |
| CCNC(=O)C1CCN(S(=O)(=O)c2ccc(OC/C(=C\F)CN)nc2)CC1 [Example 15] |  |  | 9 | 4640 |
| CC1(O)CN(S(=O)(=O)c2ccc(OC/C(=C\F)CN)nc2)C1 [Example 16] |  |  | 9 | 441 |
